From publication PMC7822874, “Chemoprotective antimalarials identified through quantitative high-throughput screening of Plasmodium blood and liver stage parasites” (Scientific Reports, 2021)
Like-named read-outs stand apart in the source and are kept apart here.

Key:
HepG2 = conditions: human, hepg2 cells, 48 h
[1] = system: Plasmodium falciparum Dd2 asexual blood stage parasites; assay: microbe, parasite or virus in culture; set-up: species or system Plasmodium falciparum Dd2 in human erythrocytes; single determination (one 11-point concentration-response curve); conditions: Plasmodium falciparum, DD2, Erythrocyte, 72 h
in vitro = conditions: human, hepg2 cells

| Structure (SMILES) | Log AC50 (M) (HepG2) | AC50 ([1]; read-out: AC50) | CC50 at 48 h (in vitro) | AC50 [1] |
| --- | --- | --- | --- | --- |
| CCCC1=Nc2cc(C(=O)NCCCN3CCCCC3CC)ccc2Sc2ccc(C)cc21 (stereo not drawn) [NCGC00424661-01] | -4.3643 M | 9.44 µM | 43.2 µM | – |
| CC(Sc1nc2ccccc2c(=O)n1C)C(=O)N(C)C1CCCCC1 (stereo not drawn) [MLS001098006-01] | -4.3643 M | 5.31 µM | 43.2 µM | – |
| COc1cccc(Nc2ccc3c(n2)C(C)(C(=O)NC2CCN(C)CC2)CN(C)C3)c1 (stereo not drawn) [NCGC00414505-01] | -4.2528 M | 17.2 µM | 55.9 µM | – |
| Cc1noc(C)c1Cc1ccc(C(=O)N2[C@H]3CC[C@@H]2c2cnc(-c4ccccc4)nc2C3)o1 [NCGC00458744-01] | -4.5643 M | 9.44 µM | 27.3 µM | – |
| CN(C)CCNC(=O)c1cc2c(s1)-c1ccc(Cl)cc1SC2 [MLS001198989-01] | -4.4643 M | 13.3 µM | 34.3 µM | – |
| CCOc1ccc(NS(=O)(=O)c2csc(C(N)=O)c2)cc1 [MLS001199948-01] | -4.6143 M | 7.5 µM | 24.3 µM | – |
| COc1ccc(NC(=O)OC[C@H]2C[C@@H]3CCN2C[C@@H]3c2cc(C3CCCC3)nc(-c3ccncc3)n2)cc1 [NCGC00421346-01] | -4.3643 M | 4.22 µM | 43.2 µM | – |
| CCN(CC)CCn1c(=N)n(CC(O)COc2ccccc2C)c2ccccc21 (stereo not drawn) [NCGC00101835-01] | -4.5643 M | 3.35 µM | 27.3 µM | – |
| Cc1cc(OCCn2cc(C(=O)c3ccco3)c3ccccc32)ccc1Cl [NCGC00101880-01] | -4.8143 M | 5.31 µM | 15.3 µM | – |
| FC(F)(F)c1cnc(N2CCCN(C(S)=Nc3ccccc3)CC2)c(Cl)c1 [MLS000833545-01] | -4.3643 M | 4.73 µM | 43.2 µM | – |
| CC(C)c1nc(-c2ccc(OC3CCN(C(=O)CCc4nc5ccccc5[nH]4)C3)cc2)no1 (stereo not drawn) [NCGC00441007-01] | -4.5643 M | 15 µM | 27.3 µM | – |
| CCOC(=O)CCCOc1cccn2c(=O)c(-c3cc(C)n(-c4ccc(Cl)cc4)n3)c(C)nc12 [NCGC00473250-01] | -4.8143 M | 10.6 µM | 15.3 µM | – |
| Cc1ccc(CNCc2cc3c(C(C)(C)C)nn(-c4ccccc4)c3[nH]c2=O)cc1 [MLS000067257-01] | -4.3643 M | 0.266 µM | 43.2 µM | – |
| CCN1CCN(c2cc(C)c3cc(NC(=O)/C=C/c4ccc(OCCC(C)C)cc4)ccc3n2)CC1 [NCGC00103856-01] | -4.5143 M | 2.11 µM | 30.6 µM | – |
| Cc1cc(N2CCN(C)CC2)nc2ccc(NC(=O)Nc3cccc(Cl)c3)cc12 [NCGC00126479-01] | -4.3643 M | 4.22 µM | 43.2 µM | – |
| O=C(Nc1ccc([C@H]2OCC(=O)N(Cc3ccncc3)[C@@H]2CO)cc1)c1ccc(C(F)(F)F)cc1 [NCGC00395114-01] | -4.5643 M | 16.8 µM | 27.3 µM | – |
| O=C(Nc1ccc(C(F)(F)F)cc1)N1CCN(c2ccnc3cc(Cl)ccc23)CC1 [MLS000830170-01] | -4.6143 M | 5.31 µM | 24.3 µM | – |
| CCC(CC)c1cc([C@H]2CN3CC[C@H]2C[C@@H]3COC(=O)Nc2ccc(C(C)(C)C)cc2)nc(-c2ccncc2)n1 [NCGC00394559-01] | -4.3643 M | 2.11 µM | 43.2 µM | – |
| Cc1ccc([S+](=O)([O-])NC[C@H]2C[C@@H]3CC[N@]2C[C@@H]3CN2CCc3ccccc32)cc1 [NCGC00421178-01] | -4.2528 M | – | 55.9 µM | 13.7 µM |
| CCN(CC)CCNc1ccnc2cc(Cl)ccc12 [MLS000066547-01] | -4.5143 M | 0.211 µM | 30.6 µM | – |
| CCN(CC)CCNC(=O)c1ccc(NC(=O)c2cn(-c3ccc(F)cc3)nc2-c2cccc(OC)c2)cc1 [MLS001233779-01] | -4.5143 M | 9.44 µM | 30.6 µM | – |

| Structure (SMILES) | Log AC50 (M) (HepG2) | AC50 ([1]; read-out: AC50) | CC50 at 48 h (in vitro) | AC50 [1] |
| --- | --- | --- | --- | --- |
| CCN1C(=O)C2(CCN([S+](=O)([O-])c3ccc(Cl)cc3C)CC2)c2ccccc21 [NCGC00435870-01] | -4.4643 M | 5.31 µM | 34.3 µM | – |
| CC1CCCN(Cc2c(O)ccc3c4c(c(=O)oc23)CCCC4)C1 (stereo not drawn) [MLS000778333-01] | -4.9143 M | 6.68 µM | 12.2 µM | – |
| C=C(C)COc1ccc(-c2n[nH]c(C)c2-c2ccccc2)c(O)c1 [MLS000083081-01] | -4.3643 M | 4.73 µM | 43.2 µM | – |
| COc1ccc(/C=C/C(=O)Nc2ccc3nc4c(c(Nc5ccccc5OC)c3c2)CCCC4)cc1 [NCGC00104041-01] | -4.4643 M | 3.35 µM | 34.3 µM | – |
| O=C(O)c1ccccc1.OC(CNCC1CCCO1)Cn1c2ccc(Cl)cc2c2cc(Cl)ccc21 (stereo not drawn) [MLS000525403-01] | -4.4143 M | 1.19 µM | 38.5 µM | – |
| CCN1CCN(c2cc(C)c3cc(NC(=O)/C=C/c4ccc(C)cc4)ccc3n2)CC1 [NCGC00103850-01] | -4.3643 M | 4.22 µM | 43.2 µM | – |
| COc1cc2c(cc1OCc1ccccc1)N(C(=O)c1cc3ccccc3n1C)CC21CCN(C)CC1 [NCGC00419848-01] | -4.3643 M | 2.11 µM | 43.2 µM | – |
| Cc1nc(-c2ccccc2)cc([C@H]2CN3CC[C@H]2C[C@@H]3CN(Cc2ccco2)Cc2ccco2)n1 [NCGC00392555-01] | -4.5143 M | 2.99 µM | 30.6 µM | – |
| CCCCC(=O)NC(c1cccc([N+](=O)[O-])c1)c1c(OC(C)=O)ccc2ccccc12 (stereo not drawn) [MLS000527046-01] | -4.3643 M | 3.76 µM | 43.2 µM | – |
| COc1cc(C2CC(=O)N(Cc3ccc(F)cc3)c3ccccc3S2)cc(OC)c1OC (stereo not drawn) [NCGC00112401-01] | -4.5643 M | 2.11 µM | 27.3 µM | – |
| CCN(CC)CCOC(=O)c1ccc(NC(=O)c2cc3c(=O)n(CC)c4ccccc4c3s2)cc1 [NCGC00110417-01] | -4.3143 M | 2.66 µM | 48.5 µM | – |
| COc1cc2c(Nc3ccc(Br)cc3F)ncnc2cc1OCC1CCN(C)CC1 [NCGC00167513-01] | -4.5643 M | 5.96 µM | 27.3 µM | – |
| O=C1NCN(c2ccccc2)C12CCN(CCCC(c1ccc(F)cc1)c1ccc(F)cc1)CC2 [NCGC00015424-04] | -4.3643 M | 5.31 µM | 43.2 µM | – |
| O=C(Nc1ccc([N+](=O)[O-])cc1)Nc1ccc(OC(F)F)c(Cl)c1 [MLS000581434-01] | -4.5143 M | 2.66 µM | 30.6 µM | – |
| Cc1ccc(C)c(N2CCN(CCCNC(=O)c3cnn(-c4ccc(F)cc4)c3C3CCN(C(=O)OC(C)(C)C)CC3)CC2)c1 [NCGC00126698-01] | -4.3643 M | 2.66 µM | 43.2 µM | – |
| CCN(CC)CCNC(=O)c1ccc(NC(=O)c2ccc(S(=O)(=O)N3CCCCCC3)cc2)cc1 [MLS001157553-01] | -4.4643 M | 8.41 µM | 34.3 µM | – |
| O=C(Nc1nnc(SCc2ccc(F)cc2)s1)c1ccccn1 [MLS001003501-01] | -4.9643 M | 8.41 µM | 10.9 µM | – |
| Cc1nc(-c2ccccn2)nc(N(C)c2ccccc2)c1Cl [MLS001182279-01] | -4.8143 M | 5.31 µM | 15.3 µM | – |
| COc1cc2nc(N3CCN(c4cc(C)ccc4C)CC3)nc(N)c2cc1OC.Cl [MLS001199642-01] | -4.3643 M | 6.68 µM | 43.2 µM | – |
| Cc1cc(NCc2ccccn2)n2nc(C)c(-c3ccccc3)c2n1 [MLS000559925-01] | -5.9643 M | 13.3 µM | 1.09 µM | – |
| CCCCN1C(=O)c2[nH]nc(-c3ccccc3O)c2C1c1ccc(OCc2ccccc2)cc1 (stereo not drawn) [NCGC00115502-01] | -4.3643 M | 5.96 µM | 43.2 µM | – |
